pEC50, pIC50: −log10 of the molar value.
Key:
RXRγ = biological target: T1, RXRγ (Homo sapiens, UniProt P48443); test: Retinoid binding assay, RXRγ; set-up: made in house; host or cells: E. coli; settings: [3H] 9-cis retinoic acid 20 nM; read-out: Binding Affinity IC50 RXR γ
T1 sequence (P48443 1-463): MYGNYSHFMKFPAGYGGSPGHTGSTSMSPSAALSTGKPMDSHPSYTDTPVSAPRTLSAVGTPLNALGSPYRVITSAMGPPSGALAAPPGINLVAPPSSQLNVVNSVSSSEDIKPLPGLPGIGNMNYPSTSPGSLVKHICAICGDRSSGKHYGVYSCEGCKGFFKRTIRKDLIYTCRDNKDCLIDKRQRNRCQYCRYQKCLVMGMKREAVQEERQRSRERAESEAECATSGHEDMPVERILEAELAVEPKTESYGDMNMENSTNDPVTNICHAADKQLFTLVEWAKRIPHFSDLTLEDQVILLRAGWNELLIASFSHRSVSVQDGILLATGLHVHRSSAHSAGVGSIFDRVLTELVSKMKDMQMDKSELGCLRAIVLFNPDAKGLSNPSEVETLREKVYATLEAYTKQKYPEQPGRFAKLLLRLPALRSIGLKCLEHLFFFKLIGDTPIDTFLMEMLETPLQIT
From the text: (§1) The DEF domains of RAR's and the full length RXR's, expressed in E.coli, are used to measure competitive retinoid binding. […] 9-cis retinoic acid (for RXR's), respectively. […] Separation of bound from free radioactivity is achieved by charcoal/dextran (RAR's) or by desalting columns (RXR's). […] Retinoid Activation Assays

RARβ [1] = biological target: T2, RARβ (Homo sapiens, UniProt P10826); test: Retinoid binding assay, RARβ; set-up: The DEF domains of RAR's and the full length RXR's, expressed in E.coli; made in house; host or cells: E. coli; settings: read-out: Binding Affinity IC50 RAR β
T2 sequence (P10826 183-417 limits assumed): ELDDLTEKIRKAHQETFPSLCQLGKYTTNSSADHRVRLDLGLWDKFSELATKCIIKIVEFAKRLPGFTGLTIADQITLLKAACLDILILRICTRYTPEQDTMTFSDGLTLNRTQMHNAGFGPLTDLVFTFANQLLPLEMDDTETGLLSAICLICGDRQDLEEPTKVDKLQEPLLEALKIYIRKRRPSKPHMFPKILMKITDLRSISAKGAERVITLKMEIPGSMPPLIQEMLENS
From the text: as §1

RXRα [2] = biological target: T3, RXRα (Homo sapiens, UniProt P19793); test: Retinoid binding assay, RXRα; set-up: made in house; host or cells: E. coli; settings: [3H] 9-cis retinoic acid 20 nM; read-out: Binding Affinity IC50 RXR α
T3 sequence (P19793 1-462): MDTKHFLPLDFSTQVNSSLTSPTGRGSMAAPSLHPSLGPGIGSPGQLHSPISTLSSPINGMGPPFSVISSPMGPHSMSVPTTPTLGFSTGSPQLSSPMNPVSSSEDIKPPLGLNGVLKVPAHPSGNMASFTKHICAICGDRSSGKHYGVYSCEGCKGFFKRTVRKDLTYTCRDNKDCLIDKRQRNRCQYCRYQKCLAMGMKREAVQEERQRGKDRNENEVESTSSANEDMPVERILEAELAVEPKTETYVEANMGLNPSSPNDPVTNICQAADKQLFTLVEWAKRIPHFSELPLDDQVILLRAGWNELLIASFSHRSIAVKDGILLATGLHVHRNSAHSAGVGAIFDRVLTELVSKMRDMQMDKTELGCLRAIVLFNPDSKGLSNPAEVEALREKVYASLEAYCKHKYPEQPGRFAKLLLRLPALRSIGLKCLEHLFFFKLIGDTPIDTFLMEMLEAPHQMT
From the text: as §1

RARγ [3] = biological target: T4, RARγ (Homo sapiens, UniProt P13631); test: Retinoid binding assay, RARγ; settings: read-out: Binding Affinity IC50 RAR γ
T4 construct: The DEF domains of RAR's and the full length RXR's, expressed in E.coli; made in house; host or cells: E. coli
T4 sequence (P13631 185-419 limits assumed): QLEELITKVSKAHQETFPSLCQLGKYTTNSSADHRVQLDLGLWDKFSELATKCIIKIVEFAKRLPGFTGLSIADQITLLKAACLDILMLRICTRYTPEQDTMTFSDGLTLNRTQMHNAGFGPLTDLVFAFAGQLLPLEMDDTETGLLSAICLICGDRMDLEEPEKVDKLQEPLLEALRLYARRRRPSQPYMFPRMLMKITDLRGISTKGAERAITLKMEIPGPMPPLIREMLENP
From the text: as §1

RXRα [4] = biological target: T3, RXRα; test: Retinoid activation assay, RXRα (Schneider SL-3 cells, luciferase reporter); assay type: cell-based; settings: read-out: Activation EC50 RXR α
Procedure: Full length RXR cDNA is used for transfection. As reporter system, the luciferase gene is used in a construct with three copies of a RXR response element from rat CRBP gene, (formerly RARE from betaRAR gene), fused to alcoholdehydrogenase gene promoter in the plasmid pGL2-basic. Schneider SL-3 cells from Drosophila are transiently transfected 3-4 h before the experiment by the Ca-phosphate-DNA coprecipitation method. […] At the end of the incubation, the cell supernatants are assayed for luciferase activity. Results are given as EC50 (nM), the concentration leading to half-maximal activation.

RARγ [5] = biological target: T5, RARγ (Homo sapiens, UniProt P13631); test: Retinoid activation assay, RARγ (COS-1 cells, SeAP reporter); assay type: cell-based; settings: read-out: Activation EC50 RAR γ
T5 sequence (P13631 185-454 limits assumed): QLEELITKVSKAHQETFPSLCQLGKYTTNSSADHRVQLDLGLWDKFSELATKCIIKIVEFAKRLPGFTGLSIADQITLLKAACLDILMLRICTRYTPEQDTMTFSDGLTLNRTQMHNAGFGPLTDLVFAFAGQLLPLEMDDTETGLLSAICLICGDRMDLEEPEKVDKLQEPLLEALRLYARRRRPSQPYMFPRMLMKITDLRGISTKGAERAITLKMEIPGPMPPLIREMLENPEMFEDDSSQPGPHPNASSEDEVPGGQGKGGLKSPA
Procedure: (§2) Chimeric RAR cDNAs are used for transfection which contain the DNA binding region of the estrogen receptor. As reporter system, the SeAp (secreted alkaline phosphatase) gene under control of the vitellogenin estrogen response element fused to the herpes simplex thymidinkinase promoter (vit-TK-SeAP) is used. The galactosidase expression vector pCH110 serves to correct for variation in transfection efficiency. […] At the end of the incubation, the cell supernatants are assayed for SeAP activity. Results are given as EC50 (nM), the concentration leading to half-maximal activation.

RARβ [6] = biological target: T2, RARβ; test: Retinoid activation assay, RARβ (COS-1 cells, SeAP reporter); assay type: cell-based; settings: read-out: Activation EC50 RAR β
Procedure: as §2

| Structure (SMILES) | pIC50 (RXRγ) | pIC50 (RARβ [1]) | pIC50 (RXRα [2]) | pIC50 (RARγ [3]) | pEC50 (RXRα [4]) | pEC50 (RARγ [5]) | pEC50 (RARβ [6]) |
| --- | --- | --- | --- | --- | --- | --- | --- |
| CC(/C=C/[C@@H]1C[C@@H]1c1ccc2c(c1)C(C)(C)CCC2(C)C)=C\C(=O)O (racemic) [Compound 4, (2E,4E)-3-methyl-5-[(1RS,2RS)-2-(5,5,8,8-tetramethyl-5,6,7,8-tetrahydro-naphthalen-2-yl)-cyclopropyl]-penta-2,4-dienoic acid] | 6.90 | < 5.00 | 7.08 | 5.12 | 8.46 | 6.00 | 5.92 |
| CCCCOc1c([C@@H]2C[C@@H]2/C=C/C(C)=C/C(=O)O)cc(C(C)(C)C)cc1C(C)(C)C (racemic) [Compound 16, (2E,4E)-(1RS,2RS)-5-[2-(3,5-Di-tert-butyl-2-butoxy-phenyl)-cyclopropyl]-3-methyl-penta-2,4-dienoic acid] | 7.09 | < 5.00 | 7.19 | < 5.00 | ≤ 5.00 |  |  |
| CCOc1c([C@@H]2C[C@@H]2/C=C/C(C)=C/C(=O)O)cc(C(C)(C)C)cc1C(C)(C)C (racemic) [Compound 17, (2E,4E)-(1RS,2RS)-5-[2-(3,5-Di-tert-butyl-2-ethoxy-phenyl)-cyclopropyl]-3-methyl-penta-2,4-dienoic acid] | 7.16 | < 5.00 | 7.31 | < 5.00 | ≤ 5.00 |  |  |
| CC1=C(/C=C/C2=C(/C=C/C(C)=C/C(=O)O)CCCCC2)C(C)(C)CCC1 [Compound 1, (2E,4E)-3-methyl-5-[2-[(E)-2-(2,6,6-trimethyl-1-cyclohexen-1-yl)ethenyl]-1-cyclohepten-1-yl]-2,4-pentadienoic acid] | 6.82 | < 5.00 | 6.96 | < 5.00 | 8.85 |  |  |
| CC1=C(/C=C/c2sccc2/C=C/C(C)=C/C(=O)O)C(C)(C)CCC1 [Compound 5, (2E,4E)-3-Methyl-5-[2-[(E)-2-(2,6,6-trimethyl-1-cyclohexen-1-yl)ethenyl]-3-thienyl]-2,4-pentadienoic acid] | 6.80 | 6.00 | 6.82 | 5.28 | 9.10 | 6.77 | 7.07 |
| CC(/C=C/C1=C(c2ccc3c(c2)C(C)(C)CCC3(C)C)CCCC1)=C\C(=O)O [Compound 6, (2E,4E)-3-Methyl-5-[2-(5,5,8,8-tetramethyl-5,6,7,8-tetrahydro-naphthalen-2-yl)-cyclohex-1-enyl]-penta-2,4-dienoic acid] | 6.62 | < 5.00 | 6.48 | < 5.00 | 7.72 |  |  |
| CC(/C=C/c1ccccc1-c1ccc2c(c1)C(C)(C)CCC2(C)C)=C\C(=O)O [Compound 7, (2E,4E)-3-methyl-5-[2-(5,5,8,8-tetramethyl-5,6,7,8-tetrahydro-naphthalen-2-yl)-phenyl]-penta-2,4-dienoic acid] | 6.01 | < 5.00 | 6.11 | 5.20 | 8.22 |  |  |
| CC(/C=C/c1sccc1-c1ccc2c(c1)C(C)(C)CCC2(C)C)=C\C(=O)O [Compound 9] | 6.64 | 5.42 | 6.64 | 5.44 | 8.60 | 6.05 | 6.44 |
| CC(/C=C/C1=C(c2ccc3c(c2)C(C)(C)CCC3(C)C)CCC1)=C\C(=O)O [Compound 12, (2E,4E)-3-Methyl-5-[2-(5,5,8,8-tetramethyl-5,6,7,8-tetrahydro-naphthalen-2-yl)-cyclopent-1-enyl]-penta-2,4-dienoic acid] | 6.92 | 5.60 | 7.10 | 5.18 | 8.05 | 6.70 | 7.08 |
| C/C(=C/C=C/C(C)=C/C(=O)O)c1cc2c(cc1C)C(C)(C)CCCC2 [Compound 13, (2E,4E,6Z)-3-Methyl-7-(3,5,5,-trimethyl-6,7,8,9-tetrahydro-5H-benzocyclohepten-2-yl)-octa-2,4,6-trienoic acid] | 6.83 |  | 6.74 | 5.28 | 8.82 |  |  |
| CC1=C(/C=C/C2=C(/C=C/C(C)=C/C(=O)O)CCC2)C(C)(C)CCC1 [Compound 14, (2E,4E)-3-Methyl-5-[2-[(E)-2-(2,6,6-trimethyl-1-cyclohexen-1-yl)ethenyl]-1-cyclopenten-1-yl]-2,4-pentadienoic acid] | 6.85 |  | 6.96 |  | 8.22 | 6.82 | 7.05 |
| CCCCOc1c(\C(C)=C/C=C/C(C)=C/C(=O)O)cc(C(C)(C)C)cc1C(C)(C)C [Compound 15, (2E,4E,6Z)-7-[2-butoxy-3,5-bis(1,1-dimethylethyl)phenyl]-3-methyl-2,4,6-octatrienoic acid] | 7.33 | < 5.00 | 7.52 | 5.57 | ≤ 5.00 |  |  |
| CC1=C(C#CC2=C(/C=C/C(C)=C/C(=O)O)CCCCC2)C(C)(C)CCC1 [Compound 18] | 7.19 | < 5.00 | 7.02 | < 5.00 | ≤ 5.00 |  |  |
| CCOc1c(\C(C)=C/C=C/C(C)=C/C(=O)O)cc(C(C)(C)C)cc1C(C)(C)C [Compound 21, (2E,4E,6Z)-7-[3,5-Bis(1,1-dimethylethyl)-2-ethoxyphenyl]-3-methyl-2,4,6-octatrienoic acid/ethyl ester] | 7.24 | < 5.00 | 7.62 | < 5.00 | ≤ 5.00 |  |  |
